Results: US20040191334A1, “Use of transhinone derivates as cholinesterase inhibitors in treating related diseases” (priority 2003, published 2004)

Tests used:
[1] = biological target: T1, butrylcholinesterase (hBChE) (Homo sapiens, UniProt P06276); assay: Ellman assay with butrylcholinesterase (specificity); type: biochemical; conditions: hAChE run in parallel; FIGS. 4a and 4b
T1 construct: purchased Sigma
Source text: In order to test the specificity of cryptotanshinone and dihydrotanshinone I towards hAChE, butrylcholinesterase (hBChE) instead of hAChE was used in Ellman assay. hBChE is concentrated in […] and it is named as pseudoesterase as it has very homology as hAChE.
Ellman assay was preformed as mentioned, except that hBChE (commercially obtained from Sigma.) was used. Ellman assay using hAChE was also preformed in parallel for comparison.

[2] = system: mouse neuronal cell line N1E-115; assay: MTT cytotoxicity assay on N1E-115; type: cell-based; conditions: FIG. 5b
Source text: (§1) MTT assay was used to check for the toxicity of the selected primary hAChE inhibitors. Since only metabolic active cell can cleave the tetrazolium salt MTT and form a formazen dye. The O.D. measure at 540 nm is directly proportional to the number of viable cell.

[3] = system: neuronal cell line-SHSY5Y; assay: MTT cytotoxicity assay on SHSY5Y; type: cell-based; conditions: FIG. 5a
Source text: as §1

Gram positive bacteria = conditions: broad range of Gram positive bacteria; cited from earlier work
[4] = biological target: T2, Human acetylcholinesterase (hAChE) (Homo sapiens, UniProt P22303); assay: Ellman assay, human acetylcholinesterase inhibition; type: biochemical; conditions: for effect on AChE inhibition (in words): selected active components, FIG. 2 and 3
T2 construct: purchased Sigma
T2 sequence (P22303 32-614): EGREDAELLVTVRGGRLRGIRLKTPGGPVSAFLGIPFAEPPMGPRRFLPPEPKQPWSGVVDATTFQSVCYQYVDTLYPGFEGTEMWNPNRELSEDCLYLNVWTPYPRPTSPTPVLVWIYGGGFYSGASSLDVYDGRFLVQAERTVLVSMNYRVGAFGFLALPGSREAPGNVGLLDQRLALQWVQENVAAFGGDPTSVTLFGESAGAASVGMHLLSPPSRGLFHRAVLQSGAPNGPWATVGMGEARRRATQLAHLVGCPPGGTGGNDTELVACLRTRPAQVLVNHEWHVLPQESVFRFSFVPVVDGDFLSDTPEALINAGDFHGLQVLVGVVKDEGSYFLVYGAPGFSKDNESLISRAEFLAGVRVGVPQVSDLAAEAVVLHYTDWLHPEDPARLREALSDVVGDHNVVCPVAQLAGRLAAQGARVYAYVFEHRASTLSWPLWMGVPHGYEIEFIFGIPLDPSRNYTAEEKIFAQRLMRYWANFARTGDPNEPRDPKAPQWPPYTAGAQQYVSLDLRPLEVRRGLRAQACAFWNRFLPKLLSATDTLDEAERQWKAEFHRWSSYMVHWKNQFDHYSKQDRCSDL
Protocol: The screening for modest cholinesterease inhibitors by the method of Ellman assay was used. Human acetylcholinesterase (hAChE) in buffer was added to the test chemicals/TCM extract followed by the addition of acetylthiocholine (ATCI) substrates and Ellman's reagent, (5′5-dithio-bis-(2-nitrobenzoate), DTNB). The AChE inhibitory activity was monitored by the release of thiocholine which was then reacted with DTNB to form a bright yellow product. The optical densities of the color product formed was spectrophotometrically determined.
After 10 minutes, the optical densities were measured in a 96-well plate reader at 415 nm. Optical densities was inversely proportional to the inhibiting activity.
Selected active components were dissolved in 50% DMSO. 100% DMSO was not recommended in this assay as it lowers the enzyme vitality.
Ellman assay was performed on the selected active components, protocatechualdehyde (MW=138.12), cryptotanshinone (MW=296), salvianic acid B (MW=718) and dihydrotanshinone I (MW=278). 10-fold dilution was made with highest concentration at 40 μM. (FIG. 2)
10-fold dilution was made with the highest concentration at 80 μM. (FIG. 3)

[5] = system: interleukin-12 (IL-12) and interferon-gamma (IFN-gamma) production; conditions: compared with cryptotanshinone and tanshinone I; cited from earlier work

T1 sequence (P06276 29-602): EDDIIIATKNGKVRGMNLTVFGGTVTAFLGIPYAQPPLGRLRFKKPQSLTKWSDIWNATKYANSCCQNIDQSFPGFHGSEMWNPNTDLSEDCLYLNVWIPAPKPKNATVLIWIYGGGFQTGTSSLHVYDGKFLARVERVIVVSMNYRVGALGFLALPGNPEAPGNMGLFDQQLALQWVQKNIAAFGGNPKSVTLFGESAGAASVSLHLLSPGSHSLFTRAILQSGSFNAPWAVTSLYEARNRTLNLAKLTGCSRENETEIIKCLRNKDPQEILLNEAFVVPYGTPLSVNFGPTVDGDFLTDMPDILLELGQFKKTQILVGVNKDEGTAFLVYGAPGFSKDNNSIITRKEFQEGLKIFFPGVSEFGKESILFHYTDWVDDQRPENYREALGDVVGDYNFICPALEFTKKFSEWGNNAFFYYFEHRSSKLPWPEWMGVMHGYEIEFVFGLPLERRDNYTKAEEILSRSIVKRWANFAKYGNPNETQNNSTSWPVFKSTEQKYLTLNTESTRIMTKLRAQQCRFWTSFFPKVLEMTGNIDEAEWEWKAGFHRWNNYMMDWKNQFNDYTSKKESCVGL

In the case of `C[C@H]1COC2=C1C(=O)C(=O)c1c2ccc2c1CCCC2(C)C` [cryptotanshinone], the “selectivity for AChE versus BChE” value [1] is reported as “higher selectivity for AChE than BChE”, the MTT cytotoxicity ([2]; N1E-115, 1-50 μM) is reported as “No significant cytotoxicity” and the MTT cytotoxicity ([3]; 1-50 μM) is reported as “No significant cytotoxicity”. The antibacterial activity (Gram positive bacteria) was “antibacterial activity” and the IC50 [4] was 5 to 8 µM.
For `Cc1cccc2c3c(ccc12)C1=C(C(=O)C3=O)[C@@H](C)CO1` [dihydrotanshinone I], the “selectivity for AChE versus BChE” value [1] is given as “higher selectivity for AChE than BChE”, the “inhibition of IL-12 and IFN-gamma production” value [5] is given as “effectively inhibit” and the MTT cytotoxicity ([2]; N1E-115, 1 μM) is given as “No significant cytotoxicity”. For the same compound, the MTT cytotoxicity ([3]; 1 μM) was “No significant cytotoxicity”, the antibacterial activity (Gram positive bacteria) was “antibacterial activity” and the IC50 [4] was 0.5 to 0.8 µM.
With `O=Cc1ccc(O)c(O)c1` [protocatechualdehyde, reference compound] the “effect on AChE inhibition (in words)” value [4] was “little effect”.
For `O=C(C=Cc1ccc(O)c2c1C(C(=O)OC(Cc1ccc(O)c(O)c1)C(=O)O)C(c1ccc(O)c(O)c1)O2)OC(Cc1ccc(O)c(O)c1)C(=O)O` (centres unmarked) [salvianic acid B, reference compound], the “effect on AChE inhibition (in words)” value [4] was “little effect”.
In the case of `Cc1coc2c1C(=O)C(=O)c1c-2ccc2c1CCCC2(C)C` [tanshinone IIA, reference compound], the “effect on AChE inhibition (in words)” value [4] is reported as “little effect”.
For `Cc1coc2c1C(=O)C(=O)c1c-2ccc2c(C)cccc12` [tanshinone I], the MTT cytotoxicity ([2]; N1E-115, 1 μM) was “No significant cytotoxicity”, the MTT cytotoxicity ([3]; 1 μM) was “No significant cytotoxicity” and the IC50 [4] was roughly 70 µM.
